Data as given in patent publication US20250059164A1, “IRAK DEGRADERS AND USES THEREOF” (Kymera Therapeutics, Inc., priority 2023, published 2025).

Key:
IRAK4 = molecular target: T1, IRAK4 (Homo sapiens, UniProt Q9NWZ3); experiment: IRAK4 MSD degradation in OCI-LY10; assay type: cell-based; conditions: OCI-LY10 cells, 24 hrs, Meso Scale Discovery
T1 construct: endogenous in cells; host or cells: OCI-LY10
T1 sequence (Q9NWZ3 1-460): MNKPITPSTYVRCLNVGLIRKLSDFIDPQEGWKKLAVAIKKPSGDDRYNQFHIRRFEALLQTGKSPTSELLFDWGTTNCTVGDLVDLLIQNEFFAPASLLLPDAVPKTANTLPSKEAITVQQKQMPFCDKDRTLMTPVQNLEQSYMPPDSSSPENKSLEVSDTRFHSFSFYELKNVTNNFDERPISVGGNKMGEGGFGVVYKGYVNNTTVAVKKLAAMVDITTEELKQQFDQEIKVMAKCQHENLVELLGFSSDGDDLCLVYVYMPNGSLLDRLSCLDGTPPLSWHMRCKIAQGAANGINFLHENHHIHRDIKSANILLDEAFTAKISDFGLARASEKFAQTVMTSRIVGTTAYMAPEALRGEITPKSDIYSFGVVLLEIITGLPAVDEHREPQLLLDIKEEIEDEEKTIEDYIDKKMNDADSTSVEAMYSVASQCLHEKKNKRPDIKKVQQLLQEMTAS
Method in brief: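 Remaining IRAK4 protein measured by Meso Scale Discovery electrochemiluminescence sandwich assay on lysates of OCI-LY10 cells. Cells were exposed for 4 to 24 hours (37° C., 5% CO2) to eight 1:3-diluted concentrations starting at 1 to 10 μM. DC50 derived by three-parameter logistic fitting.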

[1] = Rodent pharmacokinetics (rat PK); assay type: in vivo; conditions: po, dosed intravenously or orally by gavage, plasma, read-out: F % (bioavailability)
Experimental: All studies related to handling, care, and treatment of rats in the study were performed according to the guidelines approved by the Institutional Animal Care and Use Committee (IACUC). All rats had access to food and water ad libitum. Rats were dosed intravenously or orally by gavage. Whole blood was collected from the jugular vein immediately prior to dosing and at 5 (intravenously administered drugs only), 15, and 30 min and 1, 2, 4, 8, and 24 h after drug administration. After sampling, whole blood was centrifuged at 4,000×g for 5 min at 4° C. to obtain plasma.
The letter codes for bioavailability (F %) include: A (≥5%) and B (≤5%).

Row | Structure (SMILES) | DC50 (IRAK4) | bioavailability [1]
1 | COc1cc2nn([C@H]3CC[C@H](CN4CC[C@@H](c5cccc6c5n(C)c(=O)n6C5CCC(=O)NC5=O)C(F)(F)C4)CC3)cc2cc1NC(=O)c1cncc(C#N)c1 (single isomer, unassigned) [I-240] | < 10 nM | ≤ 5%
2 | COc1cc2nn([C@H]3CC[C@H](CN4CC[C@@H](c5cccc6c5n(C)c(=O)n6C5CCC(=O)NC5=O)[C@H](F)C4)CC3)cc2cc1NC(=O)c1cccc(C#N)c1 (stereo partly drawn) [I-250] | < 10 nM | ≤ 5%
3 | COc1cc2nc([C@H]3CC[C@H](CN4CC[C@H](c5cccc6c5n(C)c(=O)n6C5CCC(=O)NC5=O)C(F)(F)C4)CC3)sc2cc1NC(=O)c1cncc(C#N)c1 (single isomer, unassigned) [I-140] | > 200 nM | ≤ 5%
4 | Cn1c(=O)n([C@H]2CCC(=O)NC2=O)c2cccc([C@@H]3CCN(C[C@H]4CC[C@H](n5cc6cc(NC(=O)c7cncc(C(F)(F)F)n7)ccc6n5)CC4)C[C@H]3F)c21 (single isomer, unassigned) [I-209] | < 10 nM | ≤ 5%
5 | Cn1c(=O)n(C2CCC(=O)NC2=O)c2cccc([C@@H]3CCN(C[C@H]4CC[C@H](n5cc6cc(NC(=O)c7cncc(OC(F)F)n7)ncc6n5)CC4)C[C@H]3F)c21 (stereo partly drawn) [I-337] | < 10 nM | ≤ 5%
6 | COc1ccc2c(c1[C@H]1CCN(C[C@H]3CC[C@H](n4cc5cc(NC(=O)c6cncc(C(F)(F)F)n6)ccc5n4)CC3)CC1(F)F)n(C)c(=O)n2C1CCC(=O)NC1=O (single isomer, unassigned) [I-392] | < 10 nM | ≥ 5%
7 | Cn1c(=O)n(C2CCC(=O)NC2=O)c2cccc([C@@H]3CCN(C[C@H]4CC[C@H](c5nc6cc(C(C)(C)O)c(NC(=O)c7cncc(C#N)c7)cc6s5)CC4)C[C@H]3F)c21 (single isomer, unassigned) [I-229] | < 10 nM | ≤ 5%
8 | Cc1cc2nn([C@H]3CC[C@H](CN4CC[C@@H](c5cccc6c5n(C)c(=O)n6C5CCC(=O)NC5=O)[C@H](F)C4)CC3)cc2cc1NC(=O)c1cncc(C#N)c1 (stereo partly drawn) [I-272] | > 200 nM | ≤ 5%
9 | Cn1c(=O)n(C2CCC(=O)NC2=O)c2cccc(C#CCN3CCN(C[C@H]4CC[C@H](n5cc(NC(=O)c6cnn7ccc(N8C[C@H]9C[C@@H]8CO9)nc67)c(C(F)F)n5)CC4)CC3=O)c21 (stereo partly drawn) [I-186] | < 10 nM | ≤ 5%
10 | COc1cc(NC(=O)c2cncc(C(F)(F)F)n2)cc2cn([C@H]3CC[C@H](CN4CC[C@@H](c5cccc6c5n(C)c(=O)n6C5CCC(=O)NC5=O)C(F)(F)C4)CC3)nc12 (stereo partly drawn) [I-374] | < 10 nM | ≤ 5%
11 | Cn1c(=O)n(C2CCC(=O)NC2=O)c2cccc(N3CCN(C[C@H]4CC[C@H](n5cc6cc(NC(=O)c7cncc(C(F)(F)F)n7)ccc6n5)CC4)C[C@@H]3C(F)(F)F)c21 (single isomer, unassigned) [I-313] | < 10 nM | ≥ 5%
12 | Cn1c(=O)n(C2CCC(=O)NC2=O)c2cccc(N3CC4(CCN(C[C@H]5CC[C@H](c6nc7cc(C(C)(C)O)c(NC(=O)c8cccc(C(F)(F)F)n8)cc7s6)CC5)CC4(F)F)C3)c21 (stereo partly drawn) [I-409] | 10 to 100 nM | ≥ 5%
13 | Cn1c(=O)n(C2CCC(=O)NC2=O)c2cccc([C@@H]3CCN(C[C@H]4CC[C@H](n5cc6cc(NC(=O)c7cncc(C(F)(F)F)n7)cc(F)c6n5)CC4)CC3(F)F)c21 (stereo partly drawn) [I-375] | < 10 nM | ≤ 5%
14 | Cn1c(=O)n(C2CCC(=O)NC2=O)c2cccc([C@@H]3CCN(C[C@H]4CC[C@H](n5cc6cc(NC(=O)c7cncc(C(F)(F)F)n7)ccc6n5)CC4)C[C@H]3F)c21 (single isomer, unassigned) [I-112] | < 10 nM | ≤ 5%
15 | Cn1c(=O)n(C2CCC(=O)NC2=O)c2cccc([C@@H]3CCN(C[C@H]4CC[C@H](c5nc6cc(C(C)(C)O)c(NC(=O)c7cccc(C(F)(F)F)n7)cc6s5)CC4)C[C@H]3F)c21 (single isomer, unassigned) [I-102] | < 10 nM | ≥ 5%
16 | CN(C[C@H]1CC[C@H](c2nc3cc(C(C)(C)O)c(NC(=O)c4cccc(C(F)(F)F)c4)cc3s2)CC1)[C@H]1CCN(c2cccc3c2n(C)c(=O)n3C2CCC(=O)NC2=O)C[C@H]1F (single isomer, unassigned) [I-199] | 10 to 100 nM | ≥ 5%
17 | Cn1c(=O)n(C2CCC(=O)NC2=O)c2cccc([C@@H]3CCN(C[C@H]4CC[C@H](c5nc6cc(C(C)(C)O)c(NC(=O)c7cncc(C(F)(F)F)c7)cc6s5)CC4)C[C@H]3F)c21 (stereo partly drawn) [I-163] | < 10 nM | ≥ 5%

Row | Structure (SMILES) | DC50 (IRAK4) | bioavailability [1]
18 | Cn1c(=O)n(C2CCC(=O)NC2=O)c2cccc([C@@H]3CCN(C[C@H]4CC[C@H](n5cc6cc(NC(=O)c7cncc(C(F)(F)F)n7)ncc6n5)CC4)C[C@H]3F)c21 (stereo partly drawn) [I-156] | < 10 nM | ≤ 5%
19 | COc1cc2nn([C@H]3CC[C@H](CN4CC[C@@H](c5cccc6c(C7CCC(=O)NC7=O)nn(C)c56)[C@H](F)C4)CC3)cc2cc1NC(=O)c1cncc(C#N)c1 (single isomer, unassigned) [I-263] | < 10 nM | ≤ 5%
20 | Cn1c(=O)n(C2CCC(=O)NC2=O)c2cccc(N3CCC4(CCN(C[C@H]5CC[C@H](n6cc7cc(NC(=O)c8cccc(C(F)(F)F)c8)ncc7n6)CC5)CC4(F)F)CC3)c21 (stereo partly drawn) [I-141] | 10 to 100 nM | ≤ 5%
21 | Cn1c(=O)n(C2CCC(=O)NC2=O)c2cccc(N3CCC4(CCN(C[C@H]5CC[C@H](c6nc7cc(C(C)(C)O)c(NC(=O)c8cccc(C(F)(F)F)n8)cc7o6)CC5)CC4(F)F)CC3)c21 (stereo partly drawn) [I-408] | > 200 nM | ≥ 5%
22 | Cc1cc(C(=O)Nc2ccc3nn([C@H]4CC[C@H](CN5CC[C@@H](c6cccc7c6n(C)c(=O)n7C6CCC(=O)NC6=O)[C@H](F)C5)CC4)cc3c2)nc(C(F)(F)F)c1 (stereo partly drawn) [I-395] | > 200 nM | ≥ 5%
23 | Cn1c(=O)n(C2CCC(=O)NC2=O)c2ccc(F)c(N3CCC4(CCN(C[C@H]5CC[C@H](n6cc7cc(NC(=O)c8cncc(C#N)c8)c(C(C)(C)O)cc7n6)CC5)CC4(F)F)CC3)c21 (stereo partly drawn) [I-393] | < 10 nM | ≤ 5%
24 | Cn1c(=O)n(C2CCC(=O)NC2=O)c2cccc([C@@H]3CCN(C[C@H]4CC[C@H](n5cc6cc(NC(=O)c7cncc(C(F)(F)F)n7)c(C(F)F)cc6n5)CC4)C[C@H]3F)c21 (stereo partly drawn) [I-214] | < 10 nM | ≤ 5%
25 | COc1cc2nn([C@H]3CC[C@H](CN4CC[C@@H](c5cccc6c5n(C)c(=O)n6C5CCC(=O)NC5=O)[C@H](F)C4)CC3)cc2cc1C(=O)Nc1cncc(C(F)(F)F)n1 (stereo partly drawn) [I-290] | < 10 nM | ≤ 5%
26 | Cn1nc(C2CCC(=O)NC2=O)c2cccc([C@@H]3CCN(C[C@H]4CC[C@H](n5cc6cc(NC(=O)c7cncc(C#N)c7)c(C(C)(C)O)cc6n5)CC4)C[C@H]3F)c21 (single isomer, unassigned) [I-362] | < 10 nM | ≥ 5%
27 | COc1cc2nn([C@H]3CC[C@H](CN4CC[C@@H](c5cccc6c5n(C)c(=O)n6C5CCC(=O)NC5=O)[C@H](F)C4)CC3)cc2cc1NC(=O)c1cncc(C(F)(F)F)c1 (stereo partly drawn) [I-252] | < 10 nM | ≤ 5%
28 | Cn1c(=O)n(C2CCC(=O)NC2=O)c2cccc([C@@H]3CCN(C[C@H]4CC[C@H](n5cc6cc(NC(=O)c7cncc(C(F)(F)F)n7)c(Cl)cc6n5)CC4)C[C@H]3F)c21 (stereo partly drawn) [I-210] | < 10 nM | ≤ 5%
29 | CN(C[C@H]1CC[C@H](c2nc3cc(C(C)(C)O)c(NC(=O)c4cccc(C(F)(F)F)c4)cc3s2)CC1)[C@@H]1CCN(c2cccc3c2n(C)c(=O)n3C2CCC(=O)NC2=O)C[C@@H]1F (single isomer, unassigned) [I-192] | < 10 nM | ≥ 5%
30 | Cn1c(=O)n(C2CCC(=O)NC2=O)c2cccc([C@H]3CCN(C[C@H]4CC[C@H](n5cc(NC(=O)c6cnn7ccc(N8C[C@H]9C[C@@H]8CO9)nc67)c(C(F)F)n5)CC4)CC3(F)F)c21 (single isomer, unassigned) [I-332] | < 10 nM | ≤ 5%
31 | Cn1c(=O)n(C2CCC(=O)NC2=O)c2ccc(F)c([C@@H]3CCN(C[C@H]4CC[C@H](n5cc6cc(NC(=O)c7cncc(C#N)c7)c(C(C)(C)O)cc6n5)CC4)CC3(F)F)c21 (single isomer, unassigned) [I-226] | < 10 nM | ≤ 5%
32 | COc1cc2nn([C@H]3CC[C@H](CN4CCC5(CN(c6cccc7c6n(C)c(=O)n7C6CCC(=O)NC6=O)C5)C(F)(F)C4)CC3)cc2cc1NC(=O)c1cccc(C(F)(F)F)c1 (stereo partly drawn) [I-255] | < 10 nM | ≤ 5%
33 | Cn1c(=O)n(C2CCC(=O)NC2=O)c2cccc(C#CCN3CCN(C[C@H]4CC[C@H](n5cc(NC(=O)c6cnn7ccc(N8C[C@H]9C[C@@H]8CO9)nc67)c(C(F)F)n5)CC4)C[C@H]3C(F)(F)F)c21 (single isomer, unassigned) [I-304] | 10 to 100 nM | ≥ 5%
